# Assay results: patent US20060183119A1, “Method for determining predisposition to a physiological reaction in a patient” (UNIVERSITE LAVAL, priority 2002, published 2006)
# Values joined by “and” are separate entries in the source; they are usually repeats but may differ in a detail not shown here. Identical values can stand only once. Like-named read-outs stand apart in the source and are kept apart here.
# Assays:
# UGT1A7*3 = biological target: T1, UGT1A7*3 (Homo sapiens, UniProt Q9HAW7, N129K/R131K/W208R); assay: SN-38 glucuronidation by microsomes of HEK293 cells expressing UGT1A7*3; assay type: in vitro ADME; design: key to Function (SN-38G formation versus *1 allele): High: no significant difference in activity compared to *1 allele.; Low: significantly lower SN-38G formation versus *1 allele
# T1 construct: expressed in transfected cells
# T1 sequence (Q9HAW7 26-530 N129K/R131K/W208R): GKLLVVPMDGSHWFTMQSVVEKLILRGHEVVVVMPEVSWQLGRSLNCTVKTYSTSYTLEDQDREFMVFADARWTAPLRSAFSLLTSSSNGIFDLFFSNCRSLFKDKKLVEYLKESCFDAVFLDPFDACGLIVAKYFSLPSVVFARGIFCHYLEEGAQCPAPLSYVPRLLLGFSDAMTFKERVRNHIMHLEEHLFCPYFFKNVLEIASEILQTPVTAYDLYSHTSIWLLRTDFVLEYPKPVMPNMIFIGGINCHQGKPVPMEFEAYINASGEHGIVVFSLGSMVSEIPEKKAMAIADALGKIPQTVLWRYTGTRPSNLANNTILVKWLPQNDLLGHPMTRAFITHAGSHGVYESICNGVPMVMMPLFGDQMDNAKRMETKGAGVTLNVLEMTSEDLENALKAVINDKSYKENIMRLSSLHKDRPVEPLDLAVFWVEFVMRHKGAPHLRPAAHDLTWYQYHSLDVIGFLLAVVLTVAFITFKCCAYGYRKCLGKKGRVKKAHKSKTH
# Experimental: Western blot analyses of UGT1A7 and UGT1A9 variants expressed in HEK293 cells were performed on microsomal proteins (10 μg) separated on a 10% SDS-polyacrylamide gel. After transferring the proteins, the membranes were probed with an anti-UGT1A RC-71 polyclonal antibody and with an anti-calnexin antibody. The relative levels of UGT1A9 (a) and UGT1A7 proteins (b) were determined by semi-quantitative densitometric analysis of the Enhanced chemiluminescence (ECL) image. The in vitro SN-38 activity was assessed using microsomal fractions prepared from HEK293 cells expressing the *1 and variant UGT1A9 (c) and UGT1A7 (d) alleles and incubated with 5 μM of SN-38 as described in Materials and Methods.
# For the determination of Vmax and Km.
# human UGT1A9*1 = biological target: T2, human UGT1A9*1 (Homo sapiens, UniProt O60656); settings: SN-38 glucuronidation
# T2 sequence (O60656 26-530): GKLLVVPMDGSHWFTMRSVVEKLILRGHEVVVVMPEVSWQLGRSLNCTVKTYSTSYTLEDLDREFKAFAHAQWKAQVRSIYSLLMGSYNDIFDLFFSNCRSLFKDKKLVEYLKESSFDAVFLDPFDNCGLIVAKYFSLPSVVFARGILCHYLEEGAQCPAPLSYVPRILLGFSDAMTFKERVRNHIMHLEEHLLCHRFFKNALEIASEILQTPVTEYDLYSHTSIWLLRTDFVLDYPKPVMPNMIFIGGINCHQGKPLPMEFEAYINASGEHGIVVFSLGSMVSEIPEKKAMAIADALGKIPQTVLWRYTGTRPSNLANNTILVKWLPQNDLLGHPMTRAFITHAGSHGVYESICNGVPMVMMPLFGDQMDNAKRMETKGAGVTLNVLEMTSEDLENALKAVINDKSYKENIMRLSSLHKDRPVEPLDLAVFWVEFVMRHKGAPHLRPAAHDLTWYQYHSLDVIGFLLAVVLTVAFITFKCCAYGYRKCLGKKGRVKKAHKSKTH
# Experimental: Microsomal fractions from HEK-293 cells stably expressing human UGT1A9*1, UGT1A9*2 and UGT1A9*3 were used in enzymatic assays. Reactions (100 μl volume) contained 50 mM Tris-HCl, pH 7.3, 10 mM MgCl2, 100 μg/mL phosphatidylcholine, 1 mM UDP-glucuronic acid, 40 to 60 μg of membrane protein. […] Human liver microsome were incubated in the same condition for control. Reaction was stopped by the addition of 200 μL MeOH+1% HCl 2N, followed by centrifugation at 14000 rpm for 10 minutes. Supernatant was filtered through a 0.22 μm filter and 100 μL of water was added. For SN-38 and SN-38-glucuronide detection, 10 μL samples were injected on a liquid chromatographic system coupled to a fluorescence detector. Time-course experiments were realized to determine the linearity of the glucuronidation reaction.
# A liquid chromatographic method was developed to quantify SN-38 glucuronidation of UGT cell line-derived microsomes and human liver microsomes. Samples were analyzed using high performance liquid chromatography (Alliance 2695, Waters, Milford, Mass.). […] At a constant flow rate (0.7 ml/min), a linear gradient from 20 to 65% B was run over 3 min, held 0.8 min and a second gradient until 95% of B was run over 2 min and then re-equilibrated to 20% B over 2 min. The effluent from the HPLC system (Alliance 2695) was connected directly to a fluorescence detector (Waters, Milford, Mass.) using an excitation wavelength of […] and an emission of 460 nm. […] Determination of the glucuronidation rates obtained with other substrates was performed as currently known in the art.
# Microsomal fractions from HEK293 (40 to 60 μg) were added to a reaction mixture (100 μL) containing 50 mM Tris-HCl, pH 7.3, 10 mM MgCl2, 100 μg/mL phosphatidylcholine and 2 mM UDP-glucuronic acid. […] Commercially available human liver microsomes (Human Cell Culture Center Inc., Laurel, Md.) were incubated in the same conditions for all experiments. Time-course experiments were performed to determine the linearity of the glucuronidation reaction. For the determination of Vmax and Km. HEK293 cells stably expressing UGT1A9 enzymes were incubated in the presence of various concentrations of SN-38 ranging from 0.1 to 200 μM and incubated for 30 min as described above whereas UGT1A7 membranes preparations were incubated for 3 hours. […] For the detection of SN-38 and its glucuronide (SN-38G), 10 μL samples were injected in a liquid chromatographic system (HPLC) coupled to fluorescence detector as described below.
# A HPLC method was developed to quantify the rates of SN-38 glucuronidation from the various microsomal fractions under study. […] The column was connected to a fluorescence detector model 474 (Waters, Milford, Mass.) and the molecules were excited at a wavelength of 370 nm and an emission of 425 nm.
compound,measurement,setting,value
"CCc1c2c(nc3ccc(O)cc13)-c1cc3c(c(=O)n1C2)COC(=O)[C@]3(O)CC [SN-38, 7-ethyl-10-hydroxycamptothecin]",SN-38 glucuronidating activity of the allele (in words),UGT1A7*3,low
same,Function (SN-38G formation versus *1 allele),UGT1A7*3; in vitro experiments,Low
same,Vmax,"human UGT1A9*1; 0.1 to 200 μM, mean±SD",316.34±52.03 pmol/min/mg protein
same,Km,human UGT1A9*1; Table 5,3.03 ± 0.72 µM
same,Vmax,human UGT1A9*1; Table 5,316.34 ± 52.03
same,Km,"human UGT1A9*1; read-out: Apparent Km, 0.1 to 200 μM, mean±SD, Lineweaver-Burk",3.03 µM and 3.02 µM
